Here are results for 21 compounds from ChEMBL document CHEMBL4387733, “Design, synthesis and biological evaluation of indane derived GPR40 agoPAMs” (Bioorg Med Chem Lett, 2019).

Each structure is given as a SMILES string. Values after ≈ are worked out from the molar mass of the structure shown. Active and inactive are the calls of the source. The calls are words filed in the database; no cut-off is given here.

Series [1] concerns the target T1, Free fatty acid receptor 1 (Homo sapiens, UniProt O14842). As to the kind of experiment: Positive allosteric modulation of recombinant human GPR40 expressed in HEK293 cells assessed as increase in [3H]-myo-inositol phosphate accumulation measured after 60 mins in absence of human serum by microbeta counting method. It is filed as functional, cell-based.
Series [2] addresses T1, Free fatty acid receptor 1. As to the kind of experiment: Positive allosteric modulation of recombinant human GPR40 expressed in HEK293 cells assessed as increase in [3H]-myo-inositol phosphate accumulation measured after 60 mins in absence of human serum by microbeta counting method relative to control. The arrangement: concentration or dose not given beside the values. Type of series: functional, cell-based.

The target of series [3] is T1, Free fatty acid receptor 1. Briefly: Positive allosteric modulation of recombinant human GPR40 expressed in HEK293 cells assessed as increase in [3H]-myo-inositol phosphate accumulation measured after 60 mins in presence of 100% human serum by microbeta counting method. It is filed as functional, cell-based.
Series [4] is described as follows: Half-life in Wistar Han rat at 1 mg/kg, iv or 2 mg/kg, po. Type of series: ADME, organism-based. The following applies: in vivo.
For series [5], the system named is Rattus norvegicus. Briefly: Hypoglycemic activity in Sprague-Dawley rat assessed as reduction in blood glucose AUC at 3 mg/kg, ip measured after 3 hrs by IPGTT relative to control. It is filed as functional.
The nature of series [6]: Dose normalized AUC in Wistar Han rat at 2 mg/kg, po. It is filed as ADME, organism-based. The note with it: in vivo.
The nature of series [7]: Cmax in Wistar Han rat at 1 mg/kg, iv or 2 mg/kg, po. Type of series: ADME, organism-based. The following applies: in vivo.
Series [8] can be described thus: Volume of distribution in Wistar Han rat at 1 mg/kg, iv or 2 mg/kg, po. The note with it: in vivo. Type of series: ADME, organism-based.
Series [9] in a line: Clearance in Wistar Han rat at 1 mg/kg, iv or 2 mg/kg, po. It is filed as ADME, organism-based. The note with it: in vivo.
For series [10], the target named is T1, Free fatty acid receptor 1. As to the kind of experiment: Positive allosteric modulation of recombinant human GPR40 expressed in HEK293 cells assessed as increase in [3H]-myo-inositol phosphate accumulation measured after 60 mins in presence of 100% human serum by microbeta counting method relative to control. It is filed as functional, cell-based.
A short description of series [11]: Oral bioavailability in Wistar Han rat at 2 mg/kg. The following applies: in vivo. Type of series: ADME, organism-based.
Series [12] in a line: Total drug level in Wistar Han rat plasma at 1 mg/kg, iv or 2 mg/kg, po measured at 3 hrs. It is filed as ADME, organism-based.
A short description of series [13]: Drug level in Wistar Han rat assessed as unbound fraction at 1 mg/kg, iv or 2 mg/kg, po. It is filed as ADME, organism-based. The note with it: in vivo.
Series [14] can be described thus: Unbound drug level in Wistar Han rat plasma at 1 mg/kg, iv or 2 mg/kg, po measured at 3 hrs. It is filed as ADME, organism-based. The note with it: in vivo.
Series [15] can be described thus: Protein binding in human plasma assessed as unbound fraction level. Type of series: ADME, cell-free.
Series [16] relates to Rattus norvegicus. As to the kind of experiment: Hypoglycemic activity in Sprague-Dawley rat assessed as reduction in blood glucose AUC at 10 mg/kg, po pretreated for 1 hr followed by glucose challenge by OGTT relative to control. Type of series: functional. The arrangement: scale not given: the % may be the effect or the level left.
Series [17] addresses T1, Free fatty acid receptor 1. As to the kind of experiment: Agonist activity at GPR40 (unknown origin) assessed as […] in IP1 accumulation. It is filed as functional.
The nature of series [18]: Drug metabolism in pH 7.4 potassium phosphate buffer assessed as TAK-875 formation at 10 uM measured after 5 hrs.
A short description of series [19]: Stability of the compound in pH 7.4 potassium phosphate buffer at 10 uM measured after 5 hrs. The note with it: pH 7.4, 5 h. Type of series: physicochemical.
The nature of series [20]: Solubility of the compound in FASSIF. It is filed as physicochemical.
In series [21] the test system is Rattus norvegicus. Briefly: Hypoglycemic activity in Sprague-Dawley rat assessed as reduction in blood glucose AUC at 0.3 mg/kg, po pretreated for 1 hr followed by glucose challenge by OGTT relative to control. Type of series: functional.

T1 sequence (O14842 whole entry): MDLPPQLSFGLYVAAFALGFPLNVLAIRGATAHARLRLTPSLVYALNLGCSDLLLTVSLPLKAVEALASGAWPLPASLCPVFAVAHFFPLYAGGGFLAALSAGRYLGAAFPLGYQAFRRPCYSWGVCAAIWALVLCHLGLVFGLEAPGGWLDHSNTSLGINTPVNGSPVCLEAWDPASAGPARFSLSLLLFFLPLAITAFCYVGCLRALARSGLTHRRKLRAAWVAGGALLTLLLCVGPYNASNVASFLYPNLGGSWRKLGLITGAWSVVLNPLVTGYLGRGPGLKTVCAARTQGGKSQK

Turning to `COc1ccc(F)c(-c2cc3c(cc2F)[C@H](Oc2cccc([C@H](C4CC4)[C@H](C)C(=O)O)c2)CC3)c1`, the 50% effective concentration (EC50) in series [1] was 155 nM; in series [3], above 10 µM. Besides, the Activity in series [2] amounted to 224%.
Consider `COc1cc(-c2ccc3c(c2)CC[C@H]3Oc2cccc([C@H](C3CC3)[C@H](C)C(=O)O)c2F)c(F)cn1`, for which the results for the EC50 in [1] and in series [3] were 2 nM and 0.245 µM, respectively. Further, the Activity in series [2] turned out to be 342%; in series [10] it was 318%. The compound further showed a half-life in [4] of 306 min. Also, in the series on Rattus norvegicus [5], the inhibition in vivo at 3 mg/kg is 49%. The same compound gave an AUC/dose in series [6] of 36.2 µM·h. Besides, in series [7], the Cmax worked out at 6.3 µM. Also, in [8], the Vd worked out at 0.78 L/kg. The compound also yielded a clearance in series [9] of 2.9 mL/min/kg. Besides, in [11], the bioavailability is above 100%. Also, the fEC50 in series [3] is 0.08 nM. In [12], this compound returned a concentration at 3 h of 600 nM. In addition, the Fu in [13] and in series [15] was 0.05% each time. The “Cp(f)” value in [14] is 0.3 nM.
Take `O=C1NC(=O)C(C2CCOc3cc(Oc4ccc(C(F)(F)F)cc4Cl)ccc32)S1` (centres undefined): the Activity with Rattus norvegicus [16] is recorded as 97%.
Consider `COc1ccc(F)c(-c2cc3c(cn2)[C@H](Oc2cccc([C@H](C4CC4)[C@H](C)C(=O)O)c2)CC3)c1`, for which the Activity in [2] was found to be 457%. Moreover, in [10], the Activity was found to be 221%. For the same compound, in [3], the EC50 was determined as 3.32 µM and the fEC50 was found to be 4.3 nM. In addition, the fold change (FC) in series [17] was below 100. Also, the Fu in series [15] is 0.13%.
For `COc1ccc(F)c(-c2ccc3c(c2C2=CCCC2(C)C)CC[C@H]3Oc2cccc([C@H](C3CC3)[C@H](C)C(=O)O)c2)c1`, the half-maximal effective concentration (EC50) in series [1] turned out to be 326 nM; in series [3] it was 5.45 µM. Besides, the Activity in series [2] came out at 101%; in series [10] it was 110%. For the same compound, in series [3], the fEC50 worked out at 2.3 nM.
In the case of `COc1ccc(F)c(-c2ccc(COc3cccc([C@@H](CC(=O)O)C4CC4)c3)cc2)c1`, the EC50 in [3] is above 10 µM. Also, in series [15], the Fu was found to be 0.05%.
Regarding `COc1ccc(F)c(-c2ccc3c(c2)CC[C@@H]3Oc2cccc([C@H](C3CC3)[C@H](C)C(=O)O)c2)c1`, the EC50 in [1] stood at 60 nM; in [3], 5.49 µM. Besides, the Activity is 339% in [2] and 84% in series [10]. Further, the fEC50 in series [3] was determined as 0.6 nM.
`COc1ccc(F)c(-c2cc(F)c3c(c2)CC[C@H]3Oc2cccc([C@@H](CC(=O)O)C3CC3)c2)c1`: in series [2], the Activity came out at 224%. In series [3], the EC50 is above 10 µM.
Take `Cc1cc(OCCCS(C)(=O)=O)cc(C)c1-c1cccc(COc2ccc3c(c2)OC[C@H]3CC(=O)OC2O[C@H](C(=O)O)[C@@H](O)[C@H](O)[C@H]2O)c1` (some centres undefined): the Drug metabolism result in series [18] was “Metabolite detected”. In addition, the Stability result in series [19] is “Unstable”.
Regarding `COc1ccc(F)c(-c2ccc3c(c2)CC[C@H]3Oc2cccc([C@H](C3CC3)[C@H](C)C(=O)O)c2F)c1`, the values for the EC50 in series [1] and in series [3] were 3 nM and 0.127 µM, respectively. The Activity in [2] came out at 395%; in series [10], 264%. Further, the half-life in [4] is 186 min. The inhibition in vivo at 3 mg/kg with Rattus norvegicus [5] is 10%. For the same compound, in series [6], the AUC/dose was 9.3 µM·h. In series [7], this compound had a Cmax of 2.9 µM. For the same compound, the Vd in series [8] is 0.85 L/kg. The compound further displayed a clearance in [9] of 2.8 mL/min/kg. In series [11], the bioavailability was above 100%. Further, in series [3], the fEC50 is 0.03 nM. In series [12], the concentration at 3 h was determined as 2500 nM. The Fu in [13] and in [15] was 0.02% each time. For the same compound, in series [14], the “Cp(f)” value is 0.5 nM.
With `COc1cc(-c2ccc3c(c2)CC[C@H]3Oc2cccc([C@H](C3CC3)[C@H](C)C(=O)O)c2)ccn1`, the EC50 in [1] was determined as 11 nM; in series [3], 3.55 µM. Moreover, the Activity in [2] stood at 448%; in [10], 372%. Also, the fEC50 in series [3] is 3.2 nM. The Fu in [15] is reported as 0.04%.
`COc1ccc(F)c(-c2ccc([C@@H]3CCc4ccc([C@H](C5CC5)[C@H](C)C(=O)O)cc4O3)cc2)c1` yielded a solubility in series [20] of 125 µM (≈ 57.6 µg/mL).
As for `COc1ccc(F)c(-c2ccc3c(c2)OC[C@@H]3Oc2cccc([C@@H](CC(=O)O)C3CC3)c2)c1`, the EC50 in [1] was 16 nM; in [3] it was 7.35 µM. Also, the results for the Activity in series [2] and in series [10] were 291% and 138%, respectively. Also, the fEC50 in series [3] came to 66 nM. For the same compound, the Fu in [15] was 0.9%.
Take `COc1ccc(F)c(-c2ccc3c(c2)CC[C@H]3Oc2cccc([C@H](C3CC3)[C@@H](C)C(=O)O)c2)c1`: the EC50 is 59 nM in series [1] and above 10 µM in [3]. For the same compound, the Activity in series [2] came out at 377%.
`CC#C[C@@H](CC(=O)O)c1ccc(OCc2cccc(-c3ccc(C(F)(F)F)cc3)c2)cc1`: the result in the series on Rattus norvegicus [21] was Active.
For `COc1ccc(F)c(-c2ccc3c(n2)CC[C@H]3Oc2cccc([C@H](C3CC3)[C@H](C)C(=O)O)c2)c1`, the results for the EC50 in series [1] and in series [3] were 151 nM and above 10 µM, respectively. The Activity in [2] was 366%.
`COc1ccc(F)c(-c2ccc3c(c2F)CC[C@H]3Oc2cccc([C@H](C3CC3)[C@H](C)C(=O)O)c2)c1`: the EC50 in series [1] was 3.9 nM; in series [3] it was 0.81 µM. In addition, the Activity in series [2] amounted to 352%; in series [10] it was 297%. Also, in [3], the fEC50 was 0.32 nM.
On to `COc1cc(-c2ccc3c(c2)CC[C@H]3Oc2cccc([C@H](C3CC3)[C@H](C)C(=O)O)c2)c(F)cn1`, for which the EC50 in series [1] amounted to 3 nM; in series [3], 0.867 µM. Also, the Activity stood at 472% in series [2] and 446% in series [10]. Further, in [4], the half-life is 234 min. For the same compound, the inhibition in vivo at 3 mg/kg in the series on Rattus norvegicus [5] was determined as 94%. The same compound had an AUC/dose in series [6] of 99.9 µM·h. Further, the Cmax in series [7] turned out to be 10.7 µM. This compound also gave a Vd in series [8] of 0.18 L/kg. The compound further came in with a clearance in series [9] of 0.6 mL/min/kg. The compound also displayed a bioavailability in series [11] of 54%. The fEC50 in [3] was determined as 0.26 nM. In addition, in series [12], the concentration at 3 h turned out to be 1900 nM. Moreover, the Fu in series [13] and in series [15] was 0.03% throughout. Further, the “Cp(f)” value in [14] turned out to be 0.57 nM.
As for `COc1ccc(F)c(-c2cnc3c(c2)CC[C@H]3Oc2cccc([C@H](C3CC3)[C@H](C)C(=O)O)c2)c1`, the values for the Activity in series [2] and in series [10] were 159% and 107%, respectively. Besides, the EC50 in series [3] came out at 4.9 µM. Besides, the fEC50 in series [3] was determined as 7.8 nM. Further, the Fu in [15] is reported as 0.16%.
With `COc1ccc(F)c(-c2ccc3c(c2)CC[C@H]3Oc2cccc([C@@H](CC(=O)O)C3CC3)c2)c1`, the Activity in series [2] amounted to 352%. For the same compound, the Activity in series [10] stood at 131%. In [3], the EC50 came to 5.95 µM and the fEC50 came to 3.7 nM.
On to `Cc1cc(OCCCS(C)(=O)=O)cc(C)c1-c1cccc(COc2ccc3c(c2)OC[C@H]3CC(=O)O)c1`, for which, in the series on Rattus norvegicus [21], the result was Active.
